The experiment has as its target T1, AR (Homo sapiens, UniProt P10275).
T1 construct: endogenous in cells; host or cells: VCaP cells
T1 sequence (P10275 1-920): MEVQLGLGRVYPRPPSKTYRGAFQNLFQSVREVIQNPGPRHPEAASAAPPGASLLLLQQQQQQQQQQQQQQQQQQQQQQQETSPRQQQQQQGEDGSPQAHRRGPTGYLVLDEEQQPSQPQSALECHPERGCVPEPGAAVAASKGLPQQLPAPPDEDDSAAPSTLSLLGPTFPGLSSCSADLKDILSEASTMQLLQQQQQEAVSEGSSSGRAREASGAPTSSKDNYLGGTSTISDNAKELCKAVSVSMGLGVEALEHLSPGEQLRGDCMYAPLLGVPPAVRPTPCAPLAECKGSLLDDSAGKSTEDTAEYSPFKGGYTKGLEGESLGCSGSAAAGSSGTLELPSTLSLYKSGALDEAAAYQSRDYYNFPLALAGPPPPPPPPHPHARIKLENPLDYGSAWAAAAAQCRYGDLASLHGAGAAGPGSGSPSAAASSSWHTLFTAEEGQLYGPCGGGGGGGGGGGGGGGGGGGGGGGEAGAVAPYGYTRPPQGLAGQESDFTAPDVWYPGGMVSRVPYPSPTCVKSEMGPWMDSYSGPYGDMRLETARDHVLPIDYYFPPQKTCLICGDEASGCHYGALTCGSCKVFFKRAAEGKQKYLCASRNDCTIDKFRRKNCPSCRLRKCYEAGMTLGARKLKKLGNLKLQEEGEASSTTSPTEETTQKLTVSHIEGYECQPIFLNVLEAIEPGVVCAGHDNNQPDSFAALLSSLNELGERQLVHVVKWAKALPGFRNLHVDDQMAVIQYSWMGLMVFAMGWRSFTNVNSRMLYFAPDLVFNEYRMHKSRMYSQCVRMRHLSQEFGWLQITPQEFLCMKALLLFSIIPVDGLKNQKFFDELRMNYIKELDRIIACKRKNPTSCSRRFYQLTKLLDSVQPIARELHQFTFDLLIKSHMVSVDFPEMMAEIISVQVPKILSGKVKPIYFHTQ
Description: VCAP AR Degradation Assay. The class given is cell-based. The conditions noted are these: for Y (AR degradation efficiency, % of DMSO control): class symbols *; for DC50: class symbols A-C, read-out: DC50. The procedure, abridged:
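VCaP cells treated 24 h at 37 °C with a 10-point 1:3 series (top 5 μM final; 0.1% DMSO control). Lysate AR measured by sandwich ELISA, normalized to DMSO as percent of control; DC50, EC50 and lowest AR level (Y) from four-parameter logistic fit.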

Structures are written as SMILES. Where only a bound is given, the exact number is not on record here.

For `CC(C)c1cc(N2C(=S)N(c3ccc(C#N)c(Cl)c3)C(=O)C2(C)C)ccc1OCCN1C[C@@H](C)N(CC(=O)Nc2cccc(NC3CCC(=O)NC3=O)c2)[C@@H](C)C1` (stereo partly drawn) [Example 202, 2-((2S,6R)-4-(2-(4-(3-(3-chloro-4-cyanophenyl)-5,5-dimethyl-4-oxo-2-thioxoimidazolidin-1-yl)-2-isopropylphenoxy)ethyl)-2,6-dimethylpiperazin-1-yl)-N-(3-(2,6-dioxopiperidin-3-ylamino)phenyl)acetamide], the “Y (AR degradation efficiency, % of DMSO control)” value is “* (0<Y<=25%)” and the DC50 (usually the concentration at which degradation of the target reaches its halfway point) is < 100 nM.
Regarding `C[C@@H]1CN(CC(=O)Nc2cccc(NC3CCC(=O)NC3=O)c2)[C@H](C)CN1CCOc1ccc(N2C(=S)N(c3ccc(C#N)c(C(F)(F)F)c3)C(=O)C2(C)C)cc1C1CC1` (stereo partly drawn) [Example 203, 2-((2R,5R)-4-(2-(4-(3-(4-cyano-3-(trifluoromethyl)phenyl)-5,5-dimethyl-4-oxo-2-thioxoimidazolidin-1-yl)-2-cyclopropylphenoxy)ethyl)-2,5-dimethylpiperazin-1-yl)-N-(3-(2,6-dioxopiperidin-3-ylamino)phenyl)acetamide], the “Y (AR degradation efficiency, % of DMSO control)” value is recorded as “* (0<Y<=25%)” and the DC50 was < 100 nM.
In the same order, the values of `C[C@@H]1CN(CCOc2ccc(N3C(=S)N(c4ccc(C#N)c(C(F)(F)F)c4)C(=O)C3(C)C)cc2C2CC2)C[C@H](C)N1CC(=O)Nc1cccc(NC2CCC(=O)NC2=O)c1` (stereo partly drawn) [Example 204, 2-((2S,6R)-4-(2-(4-(3-(4-cyano-3-(trifluoromethyl)phenyl)-5,5-dimethyl-4-oxo-2-thioxoimidazolidin-1-yl)-2-cyclopropylphenoxy)ethyl)-2,6-dimethylpiperazin-1-yl)-N-(3-(2,6-dioxopiperidin-3-ylamino)phenyl)acetamide] are “* (0<Y<=25%)” and < 100 nM.
As to `C[C@@H]1CN(CC(=O)Nc2cccc(NC3CCC(=O)NC3=O)c2)[C@H](C)CN1CCOc1ccc(N2C(=S)N(c3ccc(C#N)c(Cl)c3)C(=O)C2(C)C)cc1C1CC1` (stereo partly drawn) [Example 205, 2-((2R,5R)-4-(2-(4-(3-(3-chloro-4-cyanophenyl)-5,5-dimethyl-4-oxo-2-thioxoimidazolidin-1-yl)-2-cyclopropylphenoxy)ethyl)-2,5-dimethylpiperazin-1-yl)-N-(3-(2,6-dioxopiperidin-3-ylamino)phenyl)acetamide], the “Y (AR degradation efficiency, % of DMSO control)” value is reported as “* (0<Y<=25%)” and the 50% degradation concentration (DC50) was < 100 nM.
The matching figures for `C[C@@H]1CN(CCOc2ccc(N3C(=S)N(c4ccc(C#N)c(Cl)c4)C(=O)C3(C)C)cc2C2CC2)C[C@H](C)N1CC(=O)Nc1cccc(NC2CCC(=O)NC2=O)c1` (stereo partly drawn) [Example 206, 2-((2S,6R)-4-(2-(4-(3-(3-chloro-4-cyanophenyl)-5,5-dimethyl-4-oxo-2-thioxoimidazolidin-1-yl)-2-cyclopropylphenoxy)ethyl)-2,6-dimethylpiperazin-1-yl)-N-(3-(2,6-dioxopiperidin-3-ylamino)phenyl)acetamide]: “* (0<Y<=25%)” and < 100 nM.
In the same order, the values of `CC(C)c1cc(N2C(=S)N(c3ccc(C#N)c(Cl)c3)C(=O)C2(C)C)ccc1OCCN1C[C@@H](C)N(CC(=O)Nc2cccc(NC3CCC(=O)NC3=O)c2)C[C@H]1C` (stereo partly drawn) [Example 207, 2-((2R,5R)-4-(2-(4-(3-(3-chloro-4-cyanophenyl)-5,5-dimethyl-4-oxo-2-thioxoimidazolidin-1-yl)-2-isopropylphenoxy)ethyl)-2,5-dimethylpiperazin-1-yl)-N-(3-(2,6-dioxopiperidin-3-ylamino)phenyl)acetamide] are “** (25%<Y<=35%)” and 100 to 500 nM.
The matching figures for `CC(C)c1cc(N2C(=S)N(c3ccc(C#N)c(C(F)(F)F)c3)C(=O)C2(C)C)ccc1OCCN1C[C@@H](C)N(CC(=O)Nc2cc(Cl)cc(NC3CCC(=O)NC3=O)c2)[C@@H](C)C1` (stereo partly drawn) [Example 208, N-(3-chloro-5-(2,6-dioxopiperidin-3-ylamino)phenyl)-2-((2S,6R)-4-(2-(4-(3-(4-cyano-3-(trifluoromethyl)phenyl)-5,5-dimethyl-4-oxo-2-thioxoimidazolidin-1-yl)-2-isopropylphenoxy)ethyl)-2,6-dimethylpiperazin-1-yl)acetamide]: “* (0<Y<=25%)” and 100 to 500 nM.
Turning to `CC(C)c1cc(N2C(=S)N(c3cnc(C#N)c(C(F)(F)F)c3)C(=O)C23CCC3)ccc1OCCN1C[C@@H](C)N(CC(=O)Nc2cc(NC3CCC(=O)NC3=O)ccc2F)[C@@H](C)C1` (stereo partly drawn) [Example 209, 2-((2S,6R)-4-(2-(4-(7-(6-cyano-5-(trifluoromethyl)pyridin-3-yl)-8-oxo-6-thioxo-5,7-diazaspiro[3.4]octan-5-yl)-2-isopropylphenoxy)ethyl)-2,6-dimethylpiperazin-1-yl)-N-(5-(2,6-dioxopiperidin-3-ylamino)-2-fluorophenyl)acetamide], the “Y (AR degradation efficiency, % of DMSO control)” value was “** (25%<Y<=35%)” and the 50% degradation concentration (DC50) is 100 to 500 nM.
In the same order, the values of `CC(C)c1cc(N2C(=S)N(c3cnc(C#N)c(C(F)(F)F)c3)C(=O)C23CCC3)ccc1OCCN1C[C@@H](C)N(CC(=O)Nc2cc(C#N)cc(NC3CCC(=O)NC3=O)c2)[C@@H](C)C1` (stereo partly drawn) [Example 210, N-(3-cyano-5-(2,6-dioxopiperidin-3-ylamino)phenyl)-2-((2S,6R)-4-(2-(4-(7-(6-cyano-5-(trifluoromethyl)pyridin-3-yl)-8-oxo-6-thioxo-5,7-diazaspiro[3.4]octan-5-yl)-2-isopropylphenoxy)ethyl)-2,6-dimethylpiperazin-1-yl)acetamide] are “* (0<Y<=25%)” and < 100 nM.
In the same order, the values of `CC(C)c1cc(N2C(=S)N(c3cnc(C#N)c(C(F)(F)F)c3)C(=O)C23CCC3)ccc1OCCN1C[C@@H](C)N(CC(=O)Nc2cc(F)cc(NC3CCC(=O)NC3=O)c2)[C@@H](C)C1` (stereo partly drawn) [Example 211, 2-((2S,6R)-4-(2-(4-(7-(6-cyano-5-(trifluoromethyl)pyridin-3-yl)-8-oxo-6-thioxo-5,7-diazaspiro[3.4]octan-5-yl)-2-isopropylphenoxy)ethyl)-2,6-dimethylpiperazin-1-yl)-N-(3-(2,6-dioxopiperidin-3-ylamino)-5-fluorophenyl)acetamide] are “* (0<Y<=25%)” and < 100 nM.
The matching figures for `C[C@@H]1CN(CCOc2ccc(N3C(=S)N(c4cnc(C#N)c(C(F)(F)F)c4)C(=O)C34CCC4)cc2C2CC2)C[C@H](C)N1CC(=O)Nc1cc(C#N)cc(NC2CCC(=O)NC2=O)c1` (stereo partly drawn) [Example 212, N-(3-cyano-5-(2,6-dioxopiperidin-3-ylamino)phenyl)-2-((2S,6R)-4-(2-(4-(7-(6-cyano-5-(trifluoromethyl)pyridin-3-yl)-8-oxo-6-thioxo-5,7-diazaspiro[3.4]octan-5-yl)-2-cyclopropylphenoxy)ethyl)-2,6-dimethylpiperazin-1-yl)acetamide]: “* (0<Y<=25%)” and < 100 nM.
Regarding `CC(C)c1cc(N2C(=S)N(c3ccc(C#N)c(C(F)(F)F)c3)C(=O)C2(C)C)ccc1OCCN1C[C@@H](C)N(CC(=O)Nc2cc(F)cc(NC3CCC(=O)NC3=O)c2)[C@@H](C)C1` (stereo partly drawn) [Example 213, 2-((2S,6R)-4-(2-(4-(3-(4-cyano-3-(trifluoromethyl)phenyl)-5,5-dimethyl-4-oxo-2-thioxoimidazolidin-1-yl)-2-isopropylphenoxy)ethyl)-2,6-dimethylpiperazin-1-yl)-N-(3-(2,6-dioxopiperidin-3-ylamino)-5-fluorophenyl)acetamide], the “Y (AR degradation efficiency, % of DMSO control)” value is on record as “* (0<Y<=25%)” and the DC50 was < 100 nM.
Regarding `CC(C)c1cc(N2C(=S)N(c3ccc(C#N)c(C(F)(F)F)c3)C(=O)C2(C)C)cnc1OCCN1C[C@@H](C)N(CC(=O)Nc2cc(Cl)cc(NC3CCC(=O)NC3=O)c2)C[C@H]1C` (stereo partly drawn) [Example 214, N-(3-chloro-5-(2,6-dioxopiperidin-3-ylamino)phenyl)-2-((2R,5R)-4-(2-(5-(3-(4-cyano-3-(trifluoromethyl)phenyl)-5,5-dimethyl-4-oxo-2-thioxoimidazolidin-1-yl)-3-isopropylpyridin-2-yloxy)ethyl)-2,5-dimethylpiperazin-1-yl)acetamide], the “Y (AR degradation efficiency, % of DMSO control)” value is on record as “** (25%<Y<=35%)” and the DC50 lay within 100 to 500 nM.

Source of the values: patent US12404241B2 (Celgene Corporation, priority 2018, dated 2025).
